Laboratory results reported in patent US7812042B2, “Pharmaceutical compositions and therapeutic applications for the use of a novel vitamin B12 derivative, N-acetyl-L-cysteinylcobalamin” (priority 2006, dated 2010).
Values joined by “and” are separate entries in the source; they are usually repeats but may differ in a detail not shown here. Identical values can stand only once.

Legend:
[1] = Decomposition of thiolatocobalamins in PBS at 37° C. monitored by UV/Vis spectrophotometry; type: physicochemical; settings: decomposition in PBS at 37° C.
Protocol: The decomposition of GSCbl, NACCbl, and HcyCbl in PBS at 37° C. was monitored by UV/Vis spectrophotometry.

SK-HEP-1 cells [2] = assay: Protection of endothelial cells from homocysteine-induced cell death (MTS assay, absorbance at 490 nm; includes comparison of NACCbl, NAC, cyanocobalamin+NAC, free thiols, other cobalamins, folate); type: cell-based, Human; settings: for Absorbance at 490 nm (n = 6): replicates Y1-Y6
Protocol: The effect of a constant concentration of NACCbl and GSCbl to protect cells against variable concentrations of homocysteine was assessed. […] Cell viability was determined by MTS® assay. Data shown in FIG. 4 are representative of means ±SE of 6 independent samples. FIG. 4 illustrates that NACCbl (▪) and GSCbl (▴) protect endothelial cells from the effect of homocysteine. […] Cell viability was determined by MTS® assay. […] There was a decrease in protection as homocysteine concentration increased, but there was still ˜60% survival at 50 μM homocysteine.
The data was normalized (log 2 and log 10) as shown in FIGS. 16 and 17 and Tables 16 and 17, respectively, below.

SK-HEP-1 cells [3] = assay: Protection of endothelial cells from H2O2-induced cell death (MTS assay); type: cell-based, Human
Protocol: The effect of increasing concentrations of NACCbl and GSCbl to protect endothelial cells from the effect of H2O2 was assessed. […] Cell viability was determined by MTS® assay. […] Cell viability was determined by MTS® assay. […] Cell viability was determined by MTS® assay.

SK-HEP-1 cells [4] = assay: Protection from apoptosis induced by homocysteine (Caspase-3 activity); type: cell-based, Human; settings: 30 μM pre-treatment two hours, then 30 μM homocysteine two hours
Protocol: Caspase 3 is activated when cells undergo apoptosis. Caspase-3 assay is a standard for apoptosis assay. Homocysteine is a known inducer of apoptosis. Cells were cultured in 96-well plates for 24 hours and then treated with reagents under test conditions. Cytotoxic agents, H2O2 and etoposide were added to negative control wells. The assay was performed according to the manufacturer's protocol, as follows: Cells were re-suspended in 100 μl of clear media and 50 μl of Caspase-3 substrate solution was immediately added to each test well. […] Cell viability was determined by MTS® assay. […] Cell viability was determined by MTS® assay.

[5] = 2 hours pre-incubation, then 25 μM H2O2 24 hours

CC(=O)NC(C[S-])C(=O)O.CC1=C2N=C(C=C3N=C(C(C)=C4[N-]C(C(CC(N)=O)C4(C)CCC(=O)NCC(C)OP(=O)([O-])OC4C(CO)OC(n5cnc6cc(C)c(C)cc65)C4O)C4(C)N=C1C(CCC(N)=O)C4(C)CC(N)=O)C(CCC(N)=O)C3(C)C)C(CCC(N)=O)C2(C)CC(N)=O.[Co+3] [NACCbl, N-acetyl-L-cysteinylcobalamin]
t1/2 [1]: No decomposition within 20 hours
survival (SK-HEP-1 cells [2]; 30 μM cobalamin pre-incubation two hours, then 50 μM homocysteine two hours): ~60%
pre-incubation concentration that protected cells from homocysteine-induced cell death (SK-HEP-1 cells [2]; 2 hours pre-incubation, then 30 μM homocysteine 24 hours): ≥ 2.0 µM
Absorbance at 490 nm, Mean (n = 6) (SK-HEP-1 cells [2]; Conc. Hcy 0.000, NACCbl 30 μM, NAC 75 μM): 2.761
Absorbance at 490 nm, Mean (n = 6) (SK-HEP-1 cells [2]; Conc. Hcy 1.780 (μM), NACCbl 30 μM, NAC 75 μM): 2.673
Absorbance at 490 nm, Mean (n = 6) (SK-HEP-1 cells [2]; Conc. Hcy 3.125 (μM), NACCbl 30 μM, NAC 75 μM): 2.404
Absorbance at 490 nm, Mean (n = 6) (SK-HEP-1 cells [2]; Conc. Hcy 6.250 (μM), NACCbl 30 μM, NAC 75 μM): 2.273
Absorbance at 490 nm, Mean (n = 6) (SK-HEP-1 cells [2]; Conc. Hcy 12.500 (μM), NACCbl 30 μM, NAC 75 μM): 2.142
Absorbance at 490 nm, Mean (n = 6) (SK-HEP-1 cells [2]; Conc. Hcy 25.000 (μM), NACCbl 30 μM, NAC 75 μM): 1.954
Absorbance at 490 nm, Mean (n = 6) (SK-HEP-1 cells [2]; Conc. Hcy 50.000 (μM), NACCbl 30 μM, NAC 75 μM): 1.786
Absorbance at 490 nm, Mean (n = 6) (SK-HEP-1 cells [2]; Conc. Hcy 100.000 (μM), NACCbl 30 μM, NAC 75 μM): 1.685
Absorbance at 490 nm, Mean (n = 6) (SK-HEP-1 cells [2]; Conc. Hcy 200.000 (μM), NACCbl 30 μM, NAC 75 μM): 1.393
Absorbance at 490 nm (n = 6) (SK-HEP-1 cells [2]; Conc. of Hcy 0.000, NACCbl 30 μM, NAC 75 μM): 2.885 and 2.698 and 2.821 and 2.771 and 2.691 and 2.700
Absorbance at 490 nm (n = 6) (SK-HEP-1 cells [2]; Conc. of Hcy 1.780, NACCbl 30 μM, NAC 75 μM): 2.647 and 2.551 and 2.789 and 2.890 and 2.549 and 2.611
Absorbance at 490 nm (n = 6) (SK-HEP-1 cells [2]; Conc. of Hcy 3.125, NACCbl 30 μM): 2.453 and 2.338 and 2.360 and 2.317 and 2.418 and 2.535
Absorbance at 490 nm (n = 6) (SK-HEP-1 cells [2]; Conc. of Hcy 6.250, NACCbl 30 μM, NAC 75 μM): 2.410 and 2.400 and 2.322 and 2.201 and 2.115 and 2.187
Absorbance at 490 nm (n = 6) (SK-HEP-1 cells [2]; Conc. of Hcy 12.500, NACCbl 30 μM, NAC 75 μM): 2.210 and 2.110 and 2.045 and 2.065 and 2.101 and 2.324
Absorbance at 490 nm (n = 6) (SK-HEP-1 cells [2]; Conc. of Hcy 25.000, NACCbl 30 μM, NAC 75 μM): 2.100 and 2.190 and 1.879 and 1.937 and 1.779 and 1.837
Absorbance at 490 nm (n = 6) (SK-HEP-1 cells [2]; Conc. of Hcy 50.000, NACCbl 30 μM, NAC 75 μM): 1.678 and 1.832 and 1.881 and 1.730 and 1.740 and 1.855
Absorbance at 490 nm (n = 6) (SK-HEP-1 cells [2]; Conc. of Hcy 100.000, NACCbl 30 μM, NAC 75 μM): 1.678 and 1.592 and 1.694 and 1.773 and 1.732 and 1.639
Absorbance at 490 nm (n = 6) (SK-HEP-1 cells [2]; Conc. of Hcy 200.000, NACCbl 30 μM, NAC 75 μM): 1.378 and 1.167 and 1.330 and 1.456 and 1.491 and 1.537
protection against homocysteine-induced damage compared with free thiols (SK-HEP-1 cells [2]; Hcy 30 μM, NAC 45, GSH 100, NACCbl 12.5, GSCbl 15 μM, with or without folate 25 μM): superior to the free thiols
protection compared with GSCbl (p<0.001) (SK-HEP-1 cells [2]; concentrations below 12.5 μM, 30 μM homocysteine 24 hours): significantly greater than that provided by GSCbl
prevention of cell death compared with NAC and cyanocobalamin+NAC (SK-HEP-1 cells [2]; variable Hcy concentration, NACCbl 30 μM): superior to either NAC (75 μM) alone or in combination with CNCbl
survival (SK-HEP-1 cells [2]; ≧12.5 μM NACCbl 2 hours, then 30 μM homocysteine 24 hours): 80%
protection by NACCbl compared with GSCbl (SK-HEP-1 cells [3]; 25 μM H2O2 24 hours): no difference
concentration required to achieve >80% survival (SK-HEP-1 cells [3]; [5]): 100 µM
pre-incubation concentration that protected cells from H2O2-induced cell death (SK-HEP-1 cells [3]; [5]): ≥ 2.0 µM
protection against apoptosis induced by homocysteine (SK-HEP-1 cells [4]): total protection
